According to patent publication US20070128217A1 (priority 2003, published 2007):

Experiments:
[1] = tested on: antibodies in sera from SARS patients (sera 1a, 1b, 2, 6, 37, 62, London, SARS-yellow, SARS-green); format: binding, human; parameters: Binding of serum 6 to linear peptides of protein X1 of SARS-CoV Urbani / Binding of serum 37 to linear peptides of protein X1 of SARS-CoV Urbani / Binding of serum 6 to looped/cyclic peptide (PEPSCAN-ELISA) / Binding of serum 37 to looped/cyclic peptide (PEPSCAN-ELISA) / Binding of serum 37 to looped/cyclic peptides of protein X1 of SARS-CoV Urbani / Binding of serum 6 to linear peptides of protein X2 / Binding of serum 37 to linear peptides of protein X2 / Binding of serum 37 to looped/cyclic peptides of protein X2 of SARS-CoV Urbani / Binding of serum 6 to linear peptides of protein M of SARS-CoV Urbani / Binding of serum 37 to linear peptides of protein M of SARS-CoV Urbani / Binding of serum 6 to looped/cyclic peptides of protein M of SARS-CoV Urbani / Binding of serum 37 to looped/cyclic peptides of protein M of SARS-CoV Urbani / Binding of serum 6 to linear peptides of protein X3 of SARS-CoV Urbani / Binding of serum 37 to linear peptides of protein X3 of SARS-CoV Urbani / Binding of serum 37 to looped/cyclic peptides of protein X3 of SARS-CoV Urbani / Binding of serum 6 to linear peptides of protein X4 of SARS-CoV Urbani / Binding of serum 37 to linear peptides of protein X4 of SARS-CoV Urbani / Binding of serum 37 to looped/cyclic peptides of protein X4 of SARS-CoV Urbani / Binding of serum 6 to linear peptides of protein X5 of SARS-CoV Urbani / Binding of serum 37 to linear peptides of protein X5 of SARS-CoV Urbani / Binding of serum 37 to looped/cyclic peptides of protein X5 of SARS-CoV Urbani / Binding of serum 6 to linear peptides of protein N of SARS-CoV Urbani / Binding of serum 37 to linear peptides of protein N of SARS-CoV Urbani / Binding of serum 6 to linear peptide (PEPSCAN-ELISA) / Binding of serum 1a to looped/cyclic peptides of protein N of SARS-CoV Urbani / Binding of serum 1b to looped/cyclic peptides of protein N of SARS-CoV Urbani / Binding of serum 2 to looped/cyclic peptides of protein N of SARS-CoV Urbani / Binding of serum 6 to looped/cyclic peptides of protein N of SARS-CoV Urbani / Binding of serum 37 to looped/cyclic peptides of protein N of SARS-CoV Urbani / Binding of serum 62 to looped/cyclic peptides of protein N of SARS-CoV Urbani / Binding of serum London to looped/cyclic peptides of protein N of SARS-CoV Urbani / Binding of serum SARS-green to looped/cyclic peptides of protein N of SARS-CoV Urbani: unit not given here
[2] = tested on: control sera (pooled serum of ten healthy LUMC hospital workers; commercial negative donor pooled serum from the Dutch bloodbank); format: binding, human; parameters: Binding of Control serum LUMC to linear peptides / Binding of Control serum Blood-bank to linear peptides / Binding of Control serum LUMC to looped peptides / Binding of Control Serum Blood-Bank to Looped peptides / Binding of Control serum LUMC to linear peptides of the protein M of SARS-CoV Urbani / Binding of Control serum Blood-bank to linear peptides of the protein M of SARS-CoV Urbani / Binding of Control serum LUMC to looped peptides of the protein M of SARS-CoV Urbani / Binding of Control Serum Blood-Bank to Looped peptides of the protein M of SARS-CoV Urbani: unit not given here
[3] = tested on: rabbit serum obtained by immunizing a rabbit with the SARS-CoV strain Frankfurt 1; format: binding; parameters: Binding of a rabbit serum to linear peptides / Binding of a rabbit serum to looped peptides / Rabbit serum linear peptides / Rabbit serum looped peptides / Binding of a rabbit serum to linear peptides of protein N of SARS-CoV Urbani (Rabbit serum linear peptides) / Binding of a rabbit serum to looped/cyclic peptides of protein N of SARS-CoV Urbani (Rabbit serum looped peptides): unit not given here

MEAQFLYLYALIYFL
Binding of serum 1a to linear peptides of protein X1 of SARS-CoV Urbani [1]: 0.7
Binding of serum 1a to looped/cyclic peptide (PEPSCAN-ELISA) [1]: 0.5
Binding of serum 1b to linear peptides of protein X1 of SARS-CoV Urbani [1]: 0.6
Binding of serum 1b to looped/cyclic peptide (PEPSCAN-ELISA) [1]: 0.3
Binding of serum 2 to linear peptides of protein X1 of SARS-CoV Urbani [1]: 0.5
Binding of serum 2 to looped/cyclic peptide (PEPSCAN-ELISA) [1]: 0.4
Binding of serum 6 to linear peptides of protein X1 of SARS-CoV Urbani [1]: 0.4
Binding of serum 6 to looped/cyclic peptide (PEPSCAN-ELISA) [1]: 0.2
Binding of serum 37 to linear peptides of protein X1 of SARS-CoV Urbani [1]: 0.5
Binding of serum 37 to looped/cyclic peptide (PEPSCAN-ELISA) [1]: 0.8
Binding of serum 62 to linear peptides of protein X1 of SARS-CoV Urbani [1]: 0.4
Binding of serum 62 to looped/cyclic peptide (PEPSCAN-ELISA) [1]: 0.5
Binding of serum London to linear peptides of protein X1 of SARS-CoV Urbani [1]: 0.2
Binding of serum London to looped/cyclic peptide (PEPSCAN-ELISA) [1]: 0.2
Binding of serum SARS-green to linear peptides of protein X1 of SARS-CoV Urbani [1]: 0.0
Binding of serum SARS-green to looped/cyclic peptide (PEPSCAN-ELISA) [1]: 0.2
Binding of serum SARS-yellow to linear peptides of protein X1 of SARS-CoV Urbani [1]: 0.2
Binding of serum SARS-yellow to looped/cyclic peptide (PEPSCAN-ELISA) [1]: 0.4
Binding of Control Serum Blood-Bank to Looped peptides [2]: 0.4
Binding of Control serum Blood-bank to linear peptides [2]: 0.2
Binding of Control serum LUMC to linear peptides [2]: 0.5
Binding of Control serum LUMC to looped peptides [2]: 0.5
Binding of a rabbit serum to linear peptides [3]: 0.1
Binding of a rabbit serum to looped peptides [3]: 0.5

PKEITVATSRTLSYY
Binding of serum 1a to linear peptides of protein M of SARS-CoV Urbani [1]: 0.6
Binding of serum 1a to looped/cyclic peptides of protein M of SARS-CoV Urbani [1]: 0.6
Binding of serum 1b to linear peptides of protein M of SARS-CoV Urbani [1]: 0.4
Binding of serum 1b to looped/cyclic peptides of protein M of SARS-CoV Urbani [1]: 0.6
Binding of serum 2 to linear peptides of protein M of SARS-CoV Urbani [1]: 0.5
Binding of serum 2 to looped/cyclic peptides of protein M of SARS-CoV Urbani [1]: 0.6
Binding of serum 6 to linear peptides of protein M of SARS-CoV Urbani [1]: 0.2
Binding of serum 6 to looped/cyclic peptides of protein M of SARS-CoV Urbani [1]: 0.7
Binding of serum 37 to linear peptides of protein M of SARS-CoV Urbani [1]: 0.8
Binding of serum 37 to looped/cyclic peptides of protein M of SARS-CoV Urbani [1]: 0.6
Binding of serum 62 to linear peptides of protein M of SARS-CoV Urbani [1]: 0.7
Binding of serum 62 to looped/cyclic peptides of protein M of SARS-CoV Urbani [1]: 0.6
Binding of serum London to linear peptides of protein M of SARS-CoV Urbani [1]: 0.3
Binding of serum London to looped/cyclic peptides of protein M of SARS-CoV Urbani [1]: 0.2
Binding of serum SARS-green to linear peptides of protein M of SARS-CoV Urbani [1]: 0.1
Binding of serum SARS-green to looped/cyclic peptides of protein M of SARS-CoV Urbani [1]: 0.4
Binding of serum SARS-yellow to linear peptides of protein M of SARS-CoV Urbani [1]: 0.1
Binding of serum SARS-yellow to looped/cyclic peptides of protein M of SARS-CoV Urbani [1]: 0.4
Binding of Control Serum Blood-Bank to Looped peptides of the protein M of SARS-CoV Urbani [2]: 0.6
Binding of Control serum Blood-bank to linear peptides of the protein M of SARS-CoV Urbani [2]: 0.5
Binding of Control serum LUMC to linear peptides of the protein M of SARS-CoV Urbani [2]: 0.3
Binding of Control serum LUMC to looped peptides of the protein M of SARS-CoV Urbani [2]: 0.6
Rabbit serum linear peptides [3]: 0.5
Rabbit serum looped peptides [3]: 0.2

KILVRYNTRGNTYST
Binding of serum 1a to linear peptides of protein X5 of SARS-CoV Urbani [1]: 0.7
Binding of serum 1a to looped/cyclic peptides of protein X5 of SARS-CoV Urbani [1]: 0.5
Binding of serum 1b to linear peptides of protein X5 of SARS-CoV Urbani [1]: 0.5
Binding of serum 1b to looped/cyclic peptides of protein X5 of SARS-CoV Urbani [1]: 0.3
Binding of serum 2 to linear peptides of protein X5 of SARS-CoV Urbani [1]: 0.7
Binding of serum 2 to looped/cyclic peptides of protein X5 of SARS-CoV Urbani [1]: 0.5
Binding of serum 6 to linear peptides of protein X5 of SARS-CoV Urbani [1]: 0.7
Binding of serum 6 to looped/cyclic peptides of protein X5 of SARS-CoV Urbani [1]: 0.5
Binding of serum 37 to linear peptides of protein X5 of SARS-CoV Urbani [1]: 0.7
Binding of serum 37 to looped/cyclic peptides of protein X5 of SARS-CoV Urbani [1]: 0.5
Binding of serum 62 to linear peptides of protein X5 of SARS-CoV Urbani [1]: 0.8
Binding of serum 62 to looped/cyclic peptides of protein X5 of SARS-CoV Urbani [1]: 0.7
Binding of serum London to linear peptides of protein X5 of SARS-CoV Urbani [1]: 0.7
Binding of serum London to looped/cyclic peptides of protein X5 of SARS-CoV Urbani [1]: 0.3
Binding of serum SARS-green to linear peptides of protein X5 of SARS-CoV Urbani [1]: 0.5
Binding of serum SARS-green to looped/cyclic peptides of protein X5 of SARS-CoV Urbani [1]: 0.3
Binding of serum SARS-yellow to linear peptides of protein X5 of SARS-CoV Urbani [1]: 0.1
Binding of serum SARS-yellow to looped/cyclic peptides of protein X5 of SARS-CoV Urbani [1]: 0.6
Binding of Control Serum Blood-Bank to Looped peptides [2]: 0.5
Binding of Control serum Blood-bank to linear peptides [2]: 0.8
Binding of Control serum LUMC to linear peptides [2]: 0.6
Binding of Control serum LUMC to looped peptides [2]: 0.6
Rabbit serum linear peptides [3]: 0.7
Rabbit serum looped peptides [3]: 0.4
